Literature values in article PMC13584777, “Synthesis, Conformational Analysis, and Evaluation of 6R- and 6S‑Methylmannoimidazoles as Mannosidase Inhibitors” (ACS Omega, 2026).

Molecular target: T1, BtMan2A (Bacteroides thetaiotaomicron, UniProt Q8AAK6)
T1 construct: purchased NZYTech CZ0810
Conditions: Figure 3, authors' earlier study of the 1-deoxymannojirimycin series

T1 sequence (Q8AAK6 entry or part of it, change not shown): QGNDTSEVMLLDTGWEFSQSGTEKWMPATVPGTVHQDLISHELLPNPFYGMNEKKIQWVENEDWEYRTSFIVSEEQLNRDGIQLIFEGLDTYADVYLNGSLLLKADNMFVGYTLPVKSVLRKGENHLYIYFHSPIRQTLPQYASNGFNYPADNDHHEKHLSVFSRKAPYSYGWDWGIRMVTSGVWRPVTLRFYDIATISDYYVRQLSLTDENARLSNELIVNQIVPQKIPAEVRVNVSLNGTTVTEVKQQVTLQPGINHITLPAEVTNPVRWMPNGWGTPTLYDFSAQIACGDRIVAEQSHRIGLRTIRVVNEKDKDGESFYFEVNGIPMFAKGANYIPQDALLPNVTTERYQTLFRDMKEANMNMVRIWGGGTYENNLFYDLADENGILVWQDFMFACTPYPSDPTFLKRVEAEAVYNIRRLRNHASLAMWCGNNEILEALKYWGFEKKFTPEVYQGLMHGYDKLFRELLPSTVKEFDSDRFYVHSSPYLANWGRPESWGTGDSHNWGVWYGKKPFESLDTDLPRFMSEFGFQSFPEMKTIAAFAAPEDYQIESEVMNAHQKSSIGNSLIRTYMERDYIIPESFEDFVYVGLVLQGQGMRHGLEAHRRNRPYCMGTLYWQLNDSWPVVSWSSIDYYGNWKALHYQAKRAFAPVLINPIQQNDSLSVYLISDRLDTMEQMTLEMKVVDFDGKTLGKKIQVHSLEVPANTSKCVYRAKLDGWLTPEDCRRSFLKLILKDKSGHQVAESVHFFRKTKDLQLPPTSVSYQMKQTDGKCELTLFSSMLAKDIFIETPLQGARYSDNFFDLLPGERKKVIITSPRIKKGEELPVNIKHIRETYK

SMILES	Ki [mM]
C[C@@H](O)[C@H]1NC[C@@H](O)[C@@H](O)[C@@H]1O [compound 1, 6R-methyl-1-deoxymannojirimycin]	14 ± 1
C[C@H](O)[C@H]1NC[C@@H](O)[C@@H](O)[C@@H]1O [compound 2, 6S-methyl-1-deoxymannojirimycin]	1.4 ± 0.2
